In one test the target is T1, hMAO-B (Homo sapiens, UniProt P27338).
T1 construct: purchased Sigma-Aldrich (Munich, Germany); host or cells: baculovirus-infected BTI insect cells
T1 sequence (P27338 1-520): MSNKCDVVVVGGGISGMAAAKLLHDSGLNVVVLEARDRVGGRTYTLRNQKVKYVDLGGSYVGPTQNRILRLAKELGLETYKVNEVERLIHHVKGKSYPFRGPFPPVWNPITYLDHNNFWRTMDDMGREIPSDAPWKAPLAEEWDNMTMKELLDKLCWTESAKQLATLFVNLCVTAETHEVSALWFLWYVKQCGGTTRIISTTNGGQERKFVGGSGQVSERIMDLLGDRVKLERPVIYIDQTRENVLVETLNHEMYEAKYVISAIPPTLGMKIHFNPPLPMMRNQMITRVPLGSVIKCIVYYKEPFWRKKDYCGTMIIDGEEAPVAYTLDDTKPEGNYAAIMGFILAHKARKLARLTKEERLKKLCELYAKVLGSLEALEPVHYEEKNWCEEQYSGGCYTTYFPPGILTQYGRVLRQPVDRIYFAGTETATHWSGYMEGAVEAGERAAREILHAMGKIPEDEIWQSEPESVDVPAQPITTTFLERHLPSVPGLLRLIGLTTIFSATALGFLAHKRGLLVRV
The experiment in a line: hMAO-B inhibition, fluorimetric Amplex Red assay with p-tyramine, kinetic Ki determination. To be noted: recombinant hMAO-B, p-tyramine substrate 0.05–0.5 mM, mean ± SEM of three experiments; read-out: Experimental Ki for MAO-B. The class given is biochemical.

In test [1] the target is T2, hMAO-A (Homo sapiens, UniProt P21397).
T2 construct: purchased Sigma-Aldrich (Munich, Germany); host or cells: baculovirus-infected BTI insect cells
T2 sequence (P21397 1-527): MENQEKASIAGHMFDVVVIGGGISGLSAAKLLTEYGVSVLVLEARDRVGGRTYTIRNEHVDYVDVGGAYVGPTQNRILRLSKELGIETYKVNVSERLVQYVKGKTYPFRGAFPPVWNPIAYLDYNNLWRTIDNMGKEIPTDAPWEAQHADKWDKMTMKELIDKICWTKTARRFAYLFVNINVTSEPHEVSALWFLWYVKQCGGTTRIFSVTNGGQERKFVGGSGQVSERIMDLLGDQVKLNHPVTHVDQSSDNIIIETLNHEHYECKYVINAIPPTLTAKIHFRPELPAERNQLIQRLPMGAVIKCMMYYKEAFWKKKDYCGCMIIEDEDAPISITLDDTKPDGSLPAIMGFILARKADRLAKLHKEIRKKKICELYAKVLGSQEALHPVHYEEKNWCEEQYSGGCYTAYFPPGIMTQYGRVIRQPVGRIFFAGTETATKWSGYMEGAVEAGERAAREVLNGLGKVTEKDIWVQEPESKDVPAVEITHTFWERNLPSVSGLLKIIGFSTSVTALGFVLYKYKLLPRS
The experiment in a line: Reversibility of hMAO-A inhibition, centrifugation-ultrafiltration method. Conditions: for inhibition at 0.5 µM: compound 0.50 μM, mean ± SEM of three experiments; for Reversibility of hMAO-A inhibition: recovery of hMAO-A activity after repeated washing. In kind it is biochemical. As to the method: Reversibility of the MAO inhibition with newly synthesized compounds was determined by centrifugation-ultrafiltration method previously described. Recombinant enzymes (hMAO-A or B) were incubated with a single concentration of the synthesized compounds or the reference inhibitors in a sodium phosphate buffer (0.05 M, pH 7.4) for one hour at 37 °C. An aliquot was stored at 4 °C and used for the measurement of MAO-A and -B activities. The remaining incubated sample was placed in an Ultrafree-0.5 centrifugal tube with a 30 kDa Biomax membrane and centrifuged at 9000× g for 20 min at 4 °C. The enzyme retained in the 30 kDa membrane was re-suspended in a sodium phosphate buffer at 4 °C and centrifuged two more times. After the third centrifugation, the enzyme retained in the membrane was re-suspended in sodium phosphate buffer ([…]) and an aliquot of this suspension was used for MAO-A and -B activity determination. Control experiments were performed simultaneously to determine the 100% MAO activity by replacing the compounds and standards with appropriate dilutions of the vehicles. The corresponding values of percent (%) MAO isoform inhibition was separately calculated for samples with and without repeated washing.

Test [2] addresses T2, hMAO-A. The experiment in a line: hMAO-A inhibition, fluorimetric Amplex Red assay with p-tyramine, kinetic Ki determination. In kind it is biochemical. To be noted: for Mode of hMAO-A inhibition: Lineweaver–Burk plots; for Experimental SI: SI = Ki (MAO-A)/Ki (MAO-B); for Experimental SI / Selectivity: from experimental Ki values; for Selectivity: isoform preferentially inhibited; for Ki: recombinant hMAO-A, p-tyramine substrate 0.05–0.5 mM, mean ± SEM of three experiments, read-out: Experimental Ki for MAO-A.

For another test, the system named is mouse brain MAO-A. More on the design: method as in PMID 24218136, PMID 25142815. Conditions: flavonoids from Cayratia japonica; cited from earlier work.
[3] abbreviates: after repeated washing (three centrifugation-ultrafiltration steps), read-out: hMAO-A Inhibition (%) After Washing.
[4] abbreviates: incubated one hour at 37 °C, before washing, read-out: hMAO-A Inhibition (%) Before Washing.

Like-named read-outs stand apart in the source and are kept apart here.

One may read the Ki as the dissociation constant of the complex between target and ligand, obtained from inhibition or displacement. In general, inhibition refers to the drop in the measured response relative to a control, in per cent. A word on the IC50: it is the concentration that inhibits the measured activity by half.

Take `COc1c(OC)c(O)c2c(=O)cc(-c3ccc(O)cc3)oc2c1OC` [Compound 1, xanthomicrol]: the Ki at hMAO-B stood at 99.5 ± 7.44 µM. For the same molecule, on hMAO-A [1] (setting [3]), the inhibition at 0.5 µM is 9.23 ± 0.75%. Further, the inhibition at 0.5 µM on hMAO-A [1] (setting [4]) came out at 86.5 ± 5.21%. Moreover, the “Reversibility of hMAO-A inhibition” value on hMAO-A [1] is listed as “highly reversible inhibitors”. Also, on hMAO-A [2], the “Mode of hMAO-A inhibition” value is given as “competitive”, the “Experimental SI” value is listed as 0.007, the Selectivity result is reported as “MAO-A” and the Ki was 0.76 ± 0.03 µM.

With `CC(=O)OC[C@H]1O[C@@H](O[C@H]2[C@H](Oc3cc(O)c4c(=O)cc(-c5ccc(O)cc5)oc4c3O)O[C@H](CO)[C@@H](O)[C@@H]2O)[C@H](O)[C@H](O)[C@@H]1O` [Compound 2, isoscutellarein 7-O-[6'''-O-acetyl-β-D-allopyranosyl-(1→2)]-β-D-glucopyranoside], the figures for the Ki at hMAO-B and on hMAO-A [2] were 75600 µM and 1100 ± 99.2 µM, respectively. Also, the inhibition at 0.5 µM amounted to 10.9 ± 0.99% at hMAO-A [1] (setting [3]) and 80.2 ± 5.66% on hMAO-A [1] (setting [4]). For the same molecule, at hMAO-A [2], the “Experimental SI” value stood at 0.015. Moreover, the Selectivity result at hMAO-A [2] is listed as “MAO-A”.

As to `CC(=O)OC[C@H]1O[C@@H](O[C@H]2[C@H](Oc3cc(O)c4c(=O)cc(-c5ccc(O)cc5)oc4c3O)O[C@H](COC(C)=O)[C@@H](O)[C@@H]2O)[C@H](O)[C@H](O)[C@@H]1O` [Compound 3, isoscutellarein 7-O-[6'''-O-acetyl-β-D-allopyranosyl-(1→2)]-6''-O-acetyl-β-D-glucopyranoside], the Ki at hMAO-B came out at 80500 µM. Moreover, at hMAO-A [1] (setting [3]), the inhibition at 0.5 µM amounted to 13.3 ± 1.09%. For the same molecule, the inhibition at 0.5 µM on hMAO-A [1] (setting [4]) came out at 74.2 ± 4.89%. Besides, on hMAO-A [2], the “Experimental SI” value was 0.034, the Selectivity entry was “MAO-A” and the Ki turned out to be 2800 ± 180 µM.

As to `COc1ccc(-c2cc(=O)c3c(O)c(OC)c(OC)cc3o2)cc1` [Compound 4, salvigenin], on hMAO-B, the Ki came out at 6.27 ± 0.36 µM. Besides, the inhibition at 0.5 µM at hMAO-A [1] (setting [3]) turned out to be 8.66 ± 0.65%. Also, on hMAO-A [1] (setting [4]), the inhibition at 0.5 µM is 89 ± 5.02%. The “Reversibility of hMAO-A inhibition” value at hMAO-A [1] is reported as “highly reversible inhibitors”. For the same molecule, on hMAO-A [2], the “Mode of hMAO-A inhibition” value is recorded as “competitive”, the “Experimental SI” value worked out at 0.086, the Selectivity result is recorded as “MAO-A” and the Ki stood at 0.54 ± 0.02 µM.

Take `O=C(NCCN1CCOCC1)c1ccc(Cl)cc1` [Moclobemide, moclobemide, reference compound]: the inhibition at 0.5 µM was 7.89 ± 0.52% at hMAO-A [1] (setting [3]) and 91.2 ± 6.33% at hMAO-A [1] (setting [4]).

Take `O=c1cc(-c2ccc(O)cc2)oc2cc(O)cc(O)c12` [apigenin]: in the test on mouse brain MAO-A, the IC50 is 1.17 µM.

These data come from publication PMC6272178, “Flavonoids from Sideritis Species: Human Monoamine Oxidase (hMAO) Inhibitory Activities, Molecular Docking Studies and Crystal Structure of Xanthomicrol” (Molecules, 2015).
